In patent US6806230B1, “Pyrimidine derivatives and herbicides containing them” (Kumiai Chemical Industry Co., Ltd., priority 1999, dated 2004):

Experiments:
Format in all cases: in vivo
[1] = system: barnyard grass (Eo); experiment: Test Example 4: selectivity for a crop plant by flooded paddy field treatment; design: scale not given here; details: for Eo (herbicidal effects, index): dose 25 g active ingredient per 10 ares, examined on the 21st day after treatment; for Eo (herbicidal effect index): barnyard grass, dose 25 gai/10a, 21st day after treatment, index per Table 44
In short: (§1)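 Flooded paddy pots, 3 cm water; weeds sown from seed, rice transplanted at 2nd-leaf stage. Day after: wettable powder diluted in water, applied dropwise to water surface, 25 g a.i./10 a. Greenhouse; herbicidal effect rated at day 21.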

[2] = system: rice (Or); experiment: as above; design: scale not given here; details: rice transplanted at second leaf stage; for Or (effect on crop plant rice, index): dose 25 g active ingredient per 10 ares, examined on the 21st day after treatment; for Or (herbicidal effect index on crop): dose 25 gai/10a, 21st day after treatment, index per Table 44
In short: as §1

[3] = system: monochoria (Mo); experiment: as above; design: scale not given here; details: for Mo (herbicidal effects, index): dose 25 g active ingredient per 10 ares, examined on the 21st day after treatment; for Mo (herbicidal effect index): monochoria, dose 25 gai/10a, 21st day after treatment, index per Table 44
In short: as §1

[4] = system: wheat (Tr); experiment: Test Example 5: selectivity for a crop plant by soil treatment in upland field; design: scale not given here; details: dose 25 gai/10a, 21st day after treatment, index per Table 44
Method: (§2) In a 80 cm^2 plastic pot, upland soil was filled, and seeds of barnyard grass (Ec), green foxtail (Se), soybean (G1), wheat (Tr) and corn (Ze) were sown and covered with soil. A wettable powder prepared in accordance with Formulation Example 1 was diluted with water and uniformly applied to the soil surface by a small size spray at a rate of 100 l per 10 ares so that the dose of the active ingredient would be 25 g per 10 ares. Thereafter, cultivation was carried out in a green house, and on the 21st day after the treatment, the herbicidal effects were examined in accordance with the standards of Table 44.

[5] = system: barnyard grass (Ec); experiment: as above; design: scale not given here; details: dose 25 gai/10a, 21st day after treatment, index per Table 44
Method: as §2

[6] = system: soybean (G1); experiment: as above; design: scale not given here; details: dose 25 gai/10a, 21st day after treatment, index per Table 44
Method: as §2

[7] = system: corn (Ze); experiment: as above; design: scale not given here; details: dose 25 gai/10a, 21st day after treatment, index per Table 44
Method: as §2

[8] = system: monochoria (Mo); experiment: Test Example 1: herbicidal effects by flooded paddy field treatment; design: herbicidal effects, Mo (monochoria):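 0-5 growth inhibition grade; 5 = over 90%; 4 = 70-90%; 3 = 50-70%; 2 = 30-50%; 1 = 10-30%; 0 = under 10%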; details: for Herbicidal effect index, Mo: dose 100 gai/10a, examined on 21st day after treatment, index 0-5 per Table 44; for herbicidal effects, Mo (monochoria): dose 100 g active ingredient per 10 ares, examined on the 21st day after treatment, standards of Table 44;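 for Herbicidal effect index, Mo: 0-5 growth inhibition grade; 5 = over 90%; 4 = 70-90%; 3 = 50-70%; 2 = 30-50%; 1 = 10-30%; 0 = under 10%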
In short: (§3)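 Puddled paddy soil in pots, seeds sown, 3 cm flood. Day after sowing: wettable powder diluted in water, applied dropwise to water surface, 100 g a.i./10 ares. Greenhouse; visual herbicidal rating at day 21 post-treatment.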

[9] = system: barnyard grass (Eo); experiment: as above; design: herbicidal effects, Eo (barnyard grass):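 0-5 growth inhibition grade; 5 = over 90%; 4 = 70-90%; 3 = 50-70%; 2 = 30-50%; 1 = 10-30%; 0 = under 10%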; details: for Herbicidal effect index, Eo: dose 100 gai/10a, examined on 21st day after treatment, index 0-5 per Table 44; for herbicidal effects, Eo (barnyard grass): dose 100 g active ingredient per 10 ares, examined on the 21st day after treatment, standards of Table 44
In short: as §3

[10] = system: barnyard grass (Ec); experiment: Test Example 2: herbicidal effects by upland soil treatment; design: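 0-5 growth inhibition grade; 5 = over 90%; 4 = 70-90%; 3 = 50-70%; 2 = 30-50%; 1 = 10-30%; 0 = under 10%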; details: dose 100 g active ingredient per 10 ares, examined on the 21st day after treatment, standards of Table 44
In short: (§4)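 Pre-emergence test: barnyard grass and green foxtail sown in upland soil, then soil surface sprayed with wettable-powder formulation at 100 g active ingredient per 10 ares (100 l per 10 ares). Grown in greenhouse; herbicidal effect scored on a rating scale 21 days after treatment.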

[11] = system: green foxtail (Se); experiment: as above; details: dose 100 g active ingredient per 10 ares, examined on the 21st day after treatment, standards of Table 44;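 note: 0-5 growth inhibition grade; 5 = over 90%; 4 = 70-90%; 3 = 50-70%; 2 = 30-50%; 1 = 10-30%; 0 = under 10%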
In short: as §4

[12] = system: barnyard grass (Ec); experiment: Test Example 3: herbicidal effects by foliage treatment in upland field; design: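 0-5 growth inhibition grade; 5 = over 90%; 4 = 70-90%; 3 = 50-70%; 2 = 30-50%; 1 = 10-30%; 0 = under 10%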; details: dose 100 g active ingredient per 10 ares, examined on the 14th day after treatment
In short: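 Barnyard grass and green foxtail were grown in upland soil for 2 weeks in a greenhouse. A water-diluted wettable powder was sprayed over the foliage at 100 l per 10 ares, giving 100 g active ingredient per 10 ares. Herbicidal effect was scored on day 14 after treatment.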
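Throughout, for Herbicidal effect index, Eo: 0-5 growth inhibition grade; 5 = over 90%; 4 = 70-90%; 3 = 50-70%; 2 = 30-50%; 1 = 10-30%; 0 = under 10%.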

CC#Cc1ccc(CC(=O)N(C)C(c2cncnc2C(F)(F)F)C(C)C)cc1 (racemic) [Compound 1-84]
Eo (herbicidal effects, index) [1]: 5 | Or (effect on crop plant rice, index) [2]: 0 | Mo (herbicidal effects, index) [3]: 5 | Tr (herbicidal effect index on crop) [4]: 1 | Ec (herbicidal effect index) [5]: 4 | Gl (herbicidal effect index on crop) [6]: 0 | Ze (herbicidal effect index on crop) [7]: 0 | Herbicidal effect index, Mo [8]: 5 | Herbicidal effect index, Eo [9]: 5

CC(C)C(c1cncnc1C(F)(F)Cl)N(C)C(=O)Cc1ccccc1 (racemic) [Compound 1-15]
herbicidal effects, Ec (barnyard grass) [10]: 5 | Tr (herbicidal effect index on crop) [4]: 1 | Ec (herbicidal effect index) [5]: 5 | Ze (herbicidal effect index on crop) [7]: 1 | Herbicidal effect index, Mo [8]: 5 | Herbicidal effect index, Eo [9]: 5 | herbicidal effects, Se (green foxtail) [11]: 5

C#CCN(C(=O)Cc1ccc(F)cc1)C(c1cncnc1C(F)(F)F)C(C)C (racemic) [Compound 1-172]
herbicidal effects, Ec (barnyard grass) [10]: 5 | Eo (herbicidal effect index) [1]: 5 | Or (herbicidal effect index on crop) [2]: 1 | Mo (herbicidal effect index) [3]: 5 | Ec (herbicidal effects, index) [12]: 5 | herbicidal effects, Mo (monochoria) [8]: 5 | herbicidal effects, Eo (barnyard grass) [9]: 5 | herbicidal effects, Se (green foxtail) [11]: 5

CC(C(=O)N(C)C(c1cncnc1C(F)(F)F)C(C)C)c1ccc(Cl)cc1 (mixture of isomers) [Compound 1-71]
herbicidal effects, Ec (barnyard grass) [10]: 5 | Tr (herbicidal effect index on crop) [4]: 3 | Ec (herbicidal effect index) [5]: 5 | Ze (herbicidal effect index on crop) [7]: 0 | Herbicidal effect index, Mo [8]: 5 | Herbicidal effect index, Eo [9]: 5 | herbicidal effects, Se (green foxtail) [11]: 5

Cc1ccc(CC(=O)N(C)C(c2ccc(F)cc2)c2cncnc2C(F)(F)F)cc1 (racemic) [1-220]
herbicidal effects, Ec (barnyard grass) [10]: 5 | Eo (herbicidal effect index) [1]: 5 | Or (herbicidal effect index on crop) [2]: 1 | Mo (herbicidal effect index) [3]: 5 | Ec (herbicidal effects, index) [12]: 5 | herbicidal effects, Mo (monochoria) [8]: 5 | herbicidal effects, Eo (barnyard grass) [9]: 5 | herbicidal effects, Se (green foxtail) [11]: 5

CSc1ncncc1C(C(C)C)N(C)C(=O)Cc1ccc(C)cc1 (racemic) [Compound 1-153]
herbicidal effects, Ec (barnyard grass) [10]: 5 | Eo (herbicidal effect index) [1]: 5 | Or (herbicidal effect index on crop) [2]: 1 | Mo (herbicidal effect index) [3]: 5 | Ec (herbicidal effects, index) [12]: 4 | herbicidal effects, Mo (monochoria) [8]: 5 | herbicidal effects, Eo (barnyard grass) [9]: 5 | herbicidal effects, Se (green foxtail) [11]: 5

CC(C)C(c1cncnc1C(F)(F)F)N(C)C(=O)Cc1ccc(Br)cc1 (racemic) [Compound 1-41]
herbicidal effects, Ec (barnyard grass) [10]: 5 | Eo (herbicidal effects, index) [1]: 5 | Or (effect on crop plant rice, index) [2]: 0 | Mo (herbicidal effects, index) [3]: 5 | Ec (herbicidal effects, index) [12]: 5 | Herbicidal effect index, Mo [8]: 5 | Herbicidal effect index, Eo [9]: 5 | herbicidal effects, Se (green foxtail) [11]: 5

Cc1ccc(CC(=O)N(C)C(c2cncnc2C(F)(F)F)C(C)C)cc1 (racemic) [Compound 1-23]
herbicidal effects, Ec (barnyard grass) [10]: 5 | Eo (herbicidal effects, index) [1]: 5 | Or (effect on crop plant rice, index) [2]: 1 | Mo (herbicidal effects, index) [3]: 5 | Tr (herbicidal effect index on crop) [4]: 2 | Ec (herbicidal effect index) [5]: 5 | Ze (herbicidal effect index on crop) [7]: 1 | Herbicidal effect index, Mo [8]: 5 | Herbicidal effect index, Eo [9]: 5 | herbicidal effects, Se (green foxtail) [11]: 5

CN(C(=O)Cc1ccccc1)C(c1cncnc1C(F)(F)F)C1CCCC1 (racemic) [Compound 1-137]
herbicidal effects, Ec (barnyard grass) [10]: 5 | Eo (herbicidal effect index) [1]: 5 | Or (herbicidal effect index on crop) [2]: 1 | Mo (herbicidal effect index) [3]: 5 | Ec (herbicidal effects, index) [12]: 5 | herbicidal effects, Mo (monochoria) [8]: 5 | herbicidal effects, Eo (barnyard grass) [9]: 5 | herbicidal effects, Se (green foxtail) [11]: 5

CCN(C(=O)Cc1ccccc1)C(c1cncnc1C(F)(F)F)C(C)C (racemic) [Compound 1-26]
herbicidal effects, Ec (barnyard grass) [10]: 5 | Eo (herbicidal effects, index) [1]: 5 | Or (effect on crop plant rice, index) [2]: 1 | Mo (herbicidal effects, index) [3]: 5 | Ec (herbicidal effects, index) [12]: 4 | Herbicidal effect index, Mo [8]: 5 | Herbicidal effect index, Eo [9]: 5 | herbicidal effects, Se (green foxtail) [11]: 5

CN(C(=O)Cc1ccc(F)cc1)C(c1ccc(F)cc1)c1cncnc1C(F)(F)F (racemic) [1-218]
herbicidal effects, Ec (barnyard grass) [10]: 5 | Eo (herbicidal effect index) [1]: 5 | Or (herbicidal effect index on crop) [2]: 1 | Mo (herbicidal effect index) [3]: 5 | Ec (herbicidal effects, index) [12]: 4 | herbicidal effects, Mo (monochoria) [8]: 5 | herbicidal effects, Eo (barnyard grass) [9]: 5 | herbicidal effects, Se (green foxtail) [11]: 5

CCCC(c1cncnc1C(F)(F)F)N(C)C(=O)Cc1ccc(C)cc1 (racemic) [Compound 1-113]
herbicidal effects, Ec (barnyard grass) [10]: 5 | Eo (herbicidal effect index) [1]: 5 | Or (herbicidal effect index on crop) [2]: 0 | Mo (herbicidal effect index) [3]: 5 | Ec (herbicidal effects, index) [12]: 4 | Herbicidal effect index, Mo [8]: 5 | Herbicidal effect index, Eo [9]: 5 | herbicidal effects, Se (green foxtail) [11]: 4

CSc1ncncc1C(C(C)C)N(C)C(=O)Cc1ccc(F)cc1 (racemic) [Compound 1-152]
herbicidal effects, Ec (barnyard grass) [10]: 5 | Eo (herbicidal effect index) [1]: 5 | Or (herbicidal effect index on crop) [2]: 1 | Mo (herbicidal effect index) [3]: 5 | Ec (herbicidal effects, index) [12]: 4 | herbicidal effects, Mo (monochoria) [8]: 5 | herbicidal effects, Eo (barnyard grass) [9]: 5 | herbicidal effects, Se (green foxtail) [11]: 5

CC(C)C(c1cncnc1C(F)(F)F)N(C)C(=O)Cc1ccc(Cl)cc1 (racemic) [Compound 1-22]
herbicidal effects, Ec (barnyard grass) [10]: 5 | Eo (herbicidal effects, index) [1]: 5 | Or (effect on crop plant rice, index) [2]: 1 | Mo (herbicidal effects, index) [3]: 5 | Ec (herbicidal effects, index) [12]: 4 | Herbicidal effect index, Mo [8]: 5 | Herbicidal effect index, Eo [9]: 5 | herbicidal effects, Se (green foxtail) [11]: 5

CC(C)C(c1cncnc1C(F)(F)F)N(C)C(=S)Cc1ccc(Cl)cc1 (racemic) [Compound 1-144]
herbicidal effects, Ec (barnyard grass) [10]: 5 | Eo (herbicidal effect index) [1]: 5 | Or (herbicidal effect index on crop) [2]: 1 | Mo (herbicidal effect index) [3]: 5 | Ec (herbicidal effects, index) [12]: 4 | herbicidal effects, Mo (monochoria) [8]: 5 | herbicidal effects, Eo (barnyard grass) [9]: 5 | herbicidal effects, Se (green foxtail) [11]: 5
